pKi: −log10 of the molar value. Structures can show the parent of a compound that is named as a salt.
What was measured:
[1] = target: T1, human recombinant LTA4 hydrolase (Homo sapiens, UniProt P09960); assay: Inhibition of the aminopeptidase activity of recombinant LTA4 hydrolase (fluorimetric, Ala-AMC substrate); type: biochemical; details: in vitro
T1 construct: made in house; host or cells: E. coli JM109
T1 sequence (P09960 1-611): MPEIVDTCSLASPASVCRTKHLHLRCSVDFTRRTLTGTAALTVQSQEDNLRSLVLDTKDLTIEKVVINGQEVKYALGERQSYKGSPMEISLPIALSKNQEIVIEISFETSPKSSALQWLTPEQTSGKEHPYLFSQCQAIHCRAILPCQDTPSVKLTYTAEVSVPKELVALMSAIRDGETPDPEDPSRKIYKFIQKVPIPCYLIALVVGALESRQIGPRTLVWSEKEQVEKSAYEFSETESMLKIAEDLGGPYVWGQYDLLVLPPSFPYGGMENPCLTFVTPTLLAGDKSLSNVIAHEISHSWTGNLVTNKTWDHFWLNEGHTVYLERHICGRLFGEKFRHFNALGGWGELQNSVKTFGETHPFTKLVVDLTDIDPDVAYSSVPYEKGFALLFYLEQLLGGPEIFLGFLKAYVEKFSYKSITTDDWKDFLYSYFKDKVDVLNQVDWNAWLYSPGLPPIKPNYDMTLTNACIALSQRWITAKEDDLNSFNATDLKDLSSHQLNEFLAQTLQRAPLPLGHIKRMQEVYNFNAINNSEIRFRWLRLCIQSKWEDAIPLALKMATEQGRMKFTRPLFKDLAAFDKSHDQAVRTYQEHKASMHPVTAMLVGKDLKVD
Protocol: The compounds were tested using human recombinant LTA4 hydrolase (Minami et al., FEBS Letters, 1988, 229: 279). The LTA4 hydrolase expressed by E. coli JM109 is purified mainly according to Minami et al., (J. Biol. Chem., 1987, 262: 13873).
The inhibition of the aminopeptidase activity of the enzyme is measured by means of a fluorimetric method in 96-well microplates. The recombinant enzyme (0.5 μg in 50 μl of 50 mM Tris-HCl pH 7.4) is preincubated for 10 minutes at 37° C. in the presence of inhibitor and of dithiothreitol (DTT, 10^−5 M). The substrate alanyl-amido-methylcoumarin (Ala-AMC, 25 μM-Tris HCl 50 mM, pH 7.4) is added and the incubation is continued for 15 minutes at 37° C. The release of AMC is measured by fluorimetry.

Structure (SMILES)	pKi [1]	melting point [°C]
Br.CCCCCCOc1ccc(OCCCCC(N)C(=O)O)cc1 (racemic)		135
Br.NC(CCCOc1ccc(Oc2ccccc2)cc1)C(=O)O (racemic)		162
Br.NC(CCCCOc1ccc(Oc2ccccc2)cc1)C(=O)O (racemic)		130

More lines, now with the values ahead:

pKi [1]	melting point [°C]	Structure (SMILES)
7.49		NC(CCCCOc1ccc(Cc2ccccc2)cc1)C(=O)O (racemic) [compound 51, 2-(RS)-amino-6-(4-benzylphenoxy)hexanoic acid hydrobromide]
	199	Br.NC(CCCOc1ccc(Cc2ccccc2)cc1)C(=O)O (racemic)
	185	Br.NC(CCCCOc1ccc(-c2ccccc2)cc1)C(=O)O (racemic)
	100	Br.NC(CCCCCOc1ccc(Cc2ccccc2)cc1)C(=O)O (racemic)
	120	Br.NC(CCCCCCOc1ccc(Cc2ccccc2)cc1)C(=O)O (racemic)
